Measurements taken from patent publication US9440967B2, “1H-pyrrolo [2, 3 -B] pyridine derivatives and their use as radical quenchers” (Arizona Board of Regents on Behalf of Arizona State …, priority 2012, dated 2016).
Where a name gives a salt, the structure may show the parent alone.

Tests used:
[1] = James et al. (2005) J Biol. Chem. 280, 21295-21312; cited from earlier work
CEM cells [2] = test: Reactive oxygen species (ROS) assay, DCFH-DA flow cytometry, glutathione depleted with diethyl maleate; type: cell-based, Human; details: CEM cells pretreated 16 h with 1, 2.5 and 5 μM compound, then 5 mM DEM 50 min; compared with α-tocopherol; FIG. 1
Protocol: FIG. 1. Representative flow cytometric histograms overlay showing ROS production in CEM cells. Following pretreatment with the indicated compounds (1, 2.5 and 5 μM) for 16 h, the cells were treated with 5 mM diethyl maleate (DEM) for 50 min to deplete glutathione. The cells were washed in phosphate-buffered saline, and suspended in phosphate-buffered saline containing 20 mM glucose. Cells were loaded with 10 μM dichlorodihydrofluoresceindiacetate (DCFH-DA) for 20 min, and the green fluorescence (DCF) was measured by flow cytometry using the FL1-H channel. […] A total of 10000 events were recorded for each sample and analyzed with the CellQuest software (BD Biosciences). Increased DCF fluorescence, a measure of intracellular oxidation and ROS production, was determined by a shift in DCF fluorescence to the right on the x-axis of the FACS histogram. […] Data are expressed as the mean±SEM (n=3). α-TOH is α-tocopherol.
Cellular ROS production can be monitored using 2′,7′-dichlorodihydrofluorescein diacetate (DCFH-DA) (LeBel et al. (1992) Chem. Res. Toxicol. 5, 227-231) (Molecular Probes, Eugene, Oreg., USA), a membrane permeable and oxidant-sensitive fluorescent dye. DCFH-DA is a non-fluorescent derivative of fluorescein that emits fluorescence after being oxidized by hydrogen peroxide and other ROS. The emitted fluorescence is directly proportional to the concentration of hydrogen peroxide. DCFH-DA is nonionic and nonpolar and is easily taken up by cells. Once inside the cell, DCFH-DA is hydrolyzed by cellular esterases to non-fluorescent DCFH which traps the dye in the cell. In the presence of ROS including hydrogen peroxide, DCFH is oxidized to the highly fluorescent compound dichlorofluorescein (DCF). The intracellular DCF fluorescence is used as an index of cellular ROS production.
Cellular oxidative stress was induced by pharmacological depletion of glutathione (GSH) using the chemical diethylmaleate (DEM). ROS production was assessed by monitoring DCF fluorescence. Leukemic CEM cells (ATCC®, catalogue number CRL-2264) were cultured in RPMI (GIBCO, Grand island, NY, USA) with 10% FCS, 2 mM glutamine (HyClone, South Logan, Utah, USA) and 1% penicillin-streptomycin mix antibiotics (Cellgro, Manassas, Va., USA) supplements. CEM cells (5×10^5 cell/mL) were plated (1 mL) in 24-well plate and treated with the invention compounds (final concentration 1, 2.5, and 5 μM), and incubated at 37° C., 5% CO2 for 16 hours. The compounds tested were prepared by first making stock solutions (2.5 mM) in dimethylsulfoxide (DMSO). Cells were treated with 5 mM DEM for 50 minutes and collected by centrifugation at 300×g for 3 min and then washed twice with Hanks' Balanced Salt Solution (HSSB) buffer (Sigma, St. Louis, Mo. USA). Cells were re-suspended in HSSB buffer+20 mM glucose and incubated at 37° C. in the dark for 20 min with 10 μM DCFH-DA. Cells were collected by centrifugation at 300×g for 3 min and then washed twice with HSSB buffer. The samples were analyzed immediately by flow cytometry (Becton-Dickinson FACS Caliber), (Cell Quest software, BD Biosciences) using 488 nm excitation laser and FL1-H channel 538 nm emission filter. In each analysis, 10,000 events were recorded after cell debris were electronically gated out. Results obtained were verified by repeating experiments N=3 independent experiments. Authentic hydrogen peroxide was used as a positive control.

CEM leukemia cells [3] = test: Lipid peroxidation, C11-BODIPY581/591 oxidation in cell culture (FACS); type: cell-based, Human; details: CEM cells pretreated 16 h with 2.5 and 5 μM compound, then 5 mM DEM 90 min; compared with α-tocopherol; FIG. 2
Protocol: FIG. 2. Comparison of the lipid peroxidation in CEM leukemia cells depleted of glutathione detected by utilizing the oxidation-sensitive fatty acid probe C-11 BODIPY^581/591 using flow cytometry. Increased C-11 BODIPY-green fluorescence (oxidized form), a measure of intracellular lipid peroxidation, was determined by increasing the geometric mean fluorescence intensity (GMFI) of C-11 BODIPY-green relative to the untreated control. A bar graph representing the percentage of the geometric mean fluorescence intensity (GMFI) of C-11 BODIPY-green fluorescence relative to a treated control is shown. Data are expressed as the mean±SEM (n=3). α-TOH is α-tocopherol.
Lipid peroxidation in CEM leukemia cells was detected by utilizing the oxidant-sensitive lipophilic probe C11 BODIPY^581/591. Briefly, CEM cells (5×10^5 cell/mL) were treated with the test compounds at final concentrations of 2.5 and 5 μM, and incubated at 37° C. for 16 h in a humidified atmosphere containing 5% CO2 in air. Cells were treated with 1 μMC11 BODIPY^581/591 in phenol red-free RPMI-1640 media and incubated at 37° C. in the dark for 30 minutes. The cells were washed twice with phosphate buffered saline and oxidative stress was induced with 5 mM DEM in phenol red-free RPMI-1640 media for 90 minutes. Treated cells were collected by centrifugation at 300×g for 3 minutes and then washed twice with phosphate buffered saline. Cells were re-suspended in 250 μL of phosphate buffered saline and were analyzed by FACS (FACS Calibur flow cytometer, Becton Dickinson) to monitor the change in intensity of the C11 BODIPY^581/591-green (oxidized) fluorescence signal. A total of 10000 events were recorded for each sample and analyzed with the CellQuest software (BD Biosciences). The results were verified by repeating the experiments in duplicate. Results are expressed as the relative percentage of treated control (DEM).

CEM leukemia cells [4] = test: Mitochondrial membrane potential (Δψm) assay, TMRM staining (FACS); type: cell-based, Human; details: CEM cells pretreated 16 h, then 5 mM DEM 120 min, 250 nM TMRM; FIG. 3 and 4
Protocol: FIG. 3. Representative flow cytometric two-dimensional color density dot plot analyses of mitochondrial membrane potential (ΔΨm) in leukemia CEM cells stained with 250 nM TMRM and analyzed using FL2-H channel as described in the experimental section. The percentage of cells with intact ΔΨm is indicated in the top right quadrant of captions. Representative example from at least three independent experiments. A total of 10000 events were recorded for each sample and analyzed with the CellQuest software (BD Biosciences).
FIG. 4. A bar graph representation of means the percentage of cells with intact ΔΨm recorded by FACS. Data are expressed as means±SEM of three independent experiments run in duplicate.
Measurement of Mitochondrial Membrane Potential (Δψm) (FACS). For the determination of Δψm, CEM leukemia cells were pre-treated with or without the test compounds for 16 h. The cells were treated with 5 mM DEM for 120 minutes, collected by centrifugation at 300×g for 3 minutes and then washed twice with phosphate buffered saline. The cells were re-suspended in HSSB buffer and incubated at 37° C. in the dark for 15 minutes with 250 nM TMRM (a cationic dye which accumulates within mitochondria in accordance with the Δψm Nernst potential). Cells were collected by centrifugation at 300×g for 3 minutes and then washed twice with phosphate buffered saline. The samples were analyzed immediately by flow cytometry using 488 nm excitation laser and the FL2-H channel. The results obtained were verified in three independent experiments. The protonophore FCCP (10 μM) was used to dissipate the chemiosmotic proton gradient […] and served as a control for loss of Δψm. […] The results were verified by repeating the experiments in duplicate.

CEM cells [5] = test: Trypan blue cell viability assay of DEM-treated cells; type: cell-based, Human; details: CEM cells pretreated 16 h, then 5 mM DEM 5.5 h; FIG. 5
Protocol: FIG. 5. Trypan blue exclusion assay of CEM cells treated with test compounds for 16 h before exposure to 5 mM diethyl maleate for 5.5 h. At the time of assay, >80% of the DEM-treated cells were trypan blue positive, whereas in the non-DEM treated control, >95% of the cells were viable. Cell viability was expressed as the percentage of control. Results are an average of three independents trials. α-TOH is α-tocopherol.
Cell viability determined by trypan blue exclusion assay: This technique was used to assess the cytoprotective effects of the invention compounds in cultured cells pharmacologically treated to induce cell death by GSH depletion. DEM was used to deplete cellular GSH and induce oxidative stress. The viability of DEM-treated CEM cells was determined by their ability to exclude the dye trypan blue. Viable cells exclude trypan blue; whereas, non-viable cells take up the dye and stain blue. Briefly, CEM lymphoblasts (CCL-119) were grown in RPMI 1640 medium (GIBCO, Grand island, NY, USA) supplemented with 10% fetal calf serum, 2 mM glutamine (HyClone, South Logan, Utah, USA), 1% penicillin-streptomycin mix (Cellgro, Manassas, Va., USA). Cells were seeded at a density of 5×10^5 cells/mL and treated with different concentrations of the invention compounds. Cells were incubated at 37° C. in a humidified atmosphere of 5% CO2 in air for 16 hours. After pre-incubation, the cells were treated with 5 mM DEM for 5.5 h. Cell viability was determined by staining cells with 0.4% trypan blue using a hemacytometer. At least 500 cells were counted for each experimental group. At the time of assay, >80% of DEM-treated cells were trypan blue positive; whereas, in non-DEM treated control cell cultures>95% cells were viable. Cell viability was expressed as the percentage of control. Data are expressed as means±S.E.M (n=3).

## COC1=C(OC)C(=O)C(C/C=C(\C)CC/C=C(\C)CC/C=C(\C)CC/C=C(\C)CC/C=C(\C)CC/C=C(\C)CC/C=C(\C)CC/C=C(\C)CC/C=C(\C)CCC=C(C)C)=C(C)C1=O [coenzyme Q10]
[1]
  calculated octanol-water partition coefficient: > 10^20

## CCCCCCCCCCCCCCCCc1nc2c(c(C)c1OC(C)=O)CCN2C [Compound 2c, 1,4-Dimethyl-6-hexadecyl-2,3-dihydro-1H-pyrrolo[2,3-b]pyridin-5-yl acetate]
CEM cells [2]
  protection against ROS production (DCF fluorescence): intermediate protection
CEM leukemia cells [3]
  protection against lipid (membrane) peroxidation (C11-BODIPY-green fluorescence): Reduced protection
CEM leukemia cells [4]
  prevention of loss of Δψm (mitochondrial depolarization): less effective in preventing mitochondrial depolarization

## CCCCCCCCCCCCCCCCc1cc(C)c2c(n1)N(C)CC2 [Example 10, 1,4-Dimethyl-6-hexadecyl-2,3-dihydro-1H-pyrrolo[2,3-b]pyridine]
other
  melting point: 43 to 45 °C

## CCCCCc1nc2c(c(C)c1OC(C)=O)CCN2C [Compound 2a, 1,4-Dimethyl-6-pentyl-2,3-dihydro-1H-pyrrolo[2,3-b]pyridin-5-yl acetate]
CEM cells [2]
  protection against ROS production (DCF fluorescence): reduced protection
CEM leukemia cells [3]
  protection against lipid (membrane) peroxidation (C11-BODIPY-green fluorescence): no protection
CEM leukemia cells [4]
  prevention of loss of Δψm (mitochondrial depolarization): less effective in preventing mitochondrial depolarization

## CCCCCc1nc2c(c(C)c1O)CCN2C [Compound 1a, 1,4-Dimethyl-6-pentyl-2,3-dihydro-1H-pyrrolo[2,3-b]pyridin-5-ol trifluoroacetic acid salt]
CEM cells [2]
  protection against ROS production (DCF fluorescence): reduced protection
CEM leukemia cells [3]
  protection against lipid (membrane) peroxidation (C11-BODIPY-green fluorescence): no protection
CEM leukemia cells [4]
  prevention of loss of Δψm (mitochondrial depolarization): less effective in preventing mitochondrial depolarization

## CCCCCCCCCCCCCCCCc1nc2c(c(C)c1O)CCN2C [Compound 1c, 1,4-Dimethyl-6-hexadecyl-2,3-dihydro-1H-pyrrolo[2,3-b]pyridin-5-ol trifluoroacetic acid salt]
CEM cells [2]
  protection against ROS production (DCF fluorescence): intermediate protection
CEM leukemia cells [3]
  protection against lipid (membrane) peroxidation (C11-BODIPY-green fluorescence): Reduced protection
CEM leukemia cells [4]
  prevention of loss of Δψm (mitochondrial depolarization): less effective in preventing mitochondrial depolarization

## Cc1c(C)c2c(c(C)c1O)CC[C@@](C)(CCC[C@H](C)CCC[C@H](C)CCCC(C)C)O2 [α-tocopherol, reference compound]
CEM cells [5]
  cytoprotection (cell viability, trypan blue exclusion): significantly reduced cell death
